Measurements: US5977102A, “Pyrimido [5, 4-d] pyrimidines, pharmaceuticals containing these compounds, their use and processes for their preparation” (Dr. Karl Thomae GmbH, priority 1996, dated 1999)

Experiments:
Assay type in all cases: cell-based
[1] = biological target: T1, human EGF-R (Homo sapiens, UniProt P00533); test: Inhibition of EGF-dependent proliferation of F/L-HERc cells; conditions: EGF (20 ng/ml), 48 hours
T1 construct: expressed in transfected cells; host or cells: F/L-HERc: murine IL-3-dependent FDC-P1 cells infected with recombinant retrovirus (vector LXSN, packaging line GP+E86) carrying human EGF-R cDNA
T1 sequence (P00533 25-1210): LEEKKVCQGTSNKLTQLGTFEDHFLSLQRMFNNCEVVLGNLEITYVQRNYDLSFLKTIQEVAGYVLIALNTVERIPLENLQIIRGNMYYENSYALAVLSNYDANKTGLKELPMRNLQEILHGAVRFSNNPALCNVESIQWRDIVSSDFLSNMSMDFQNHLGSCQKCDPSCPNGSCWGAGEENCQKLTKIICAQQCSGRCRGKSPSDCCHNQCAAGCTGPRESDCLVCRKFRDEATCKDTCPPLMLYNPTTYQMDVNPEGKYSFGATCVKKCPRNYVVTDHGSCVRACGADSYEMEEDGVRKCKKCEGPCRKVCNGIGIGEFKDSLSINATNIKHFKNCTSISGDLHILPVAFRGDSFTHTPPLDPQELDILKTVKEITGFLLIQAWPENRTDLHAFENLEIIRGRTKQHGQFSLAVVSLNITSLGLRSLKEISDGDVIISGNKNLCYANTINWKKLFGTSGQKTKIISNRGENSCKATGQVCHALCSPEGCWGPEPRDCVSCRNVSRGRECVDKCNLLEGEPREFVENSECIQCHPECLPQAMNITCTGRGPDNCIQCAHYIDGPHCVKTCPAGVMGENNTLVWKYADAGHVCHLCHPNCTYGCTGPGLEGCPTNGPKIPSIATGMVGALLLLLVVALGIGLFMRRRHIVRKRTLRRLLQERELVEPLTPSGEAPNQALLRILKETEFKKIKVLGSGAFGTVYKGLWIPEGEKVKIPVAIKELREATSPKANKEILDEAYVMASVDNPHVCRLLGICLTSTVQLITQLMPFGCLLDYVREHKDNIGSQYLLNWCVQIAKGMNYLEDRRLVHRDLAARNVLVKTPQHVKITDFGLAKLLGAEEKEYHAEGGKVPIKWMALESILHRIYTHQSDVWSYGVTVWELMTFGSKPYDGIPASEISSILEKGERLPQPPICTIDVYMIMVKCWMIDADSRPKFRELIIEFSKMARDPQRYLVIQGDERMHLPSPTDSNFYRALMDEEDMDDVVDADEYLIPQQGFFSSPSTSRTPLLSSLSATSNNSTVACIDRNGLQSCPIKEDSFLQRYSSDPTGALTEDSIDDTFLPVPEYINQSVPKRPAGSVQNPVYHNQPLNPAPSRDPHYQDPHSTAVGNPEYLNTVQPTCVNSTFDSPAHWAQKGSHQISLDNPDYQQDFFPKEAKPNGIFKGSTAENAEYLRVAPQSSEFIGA
Text: (§1) In this case, an interleukin-3 (IL-3)-dependent cell line of murine origin was used and was genetically modified in such a way that it expresses functional human EGF-R. Proliferation of these cells, which are called F/L-HERc, can therefore be stimulated either by murine IL-3 or by EGF (see von Ruden, T. et al. in EMBO J. 7, 2749-2756 (1988) and Pierce, J. H. et al. in Science 239, 628-631 (1988)).
(§2) The starting material for the F/L-HERc cells was the cell line FDC-P1,whose preparation has been described by Dexter, T. M. et al. in J. Exp. Med. 152, 1036-1047 (1980). However, it is also possible as an alternative to use other growth factor-dependent cells (see, for example, Pierce, J. H. et al. in Science 239, 628-631 (1988), Shibuya, H. et al. in Cell 70, 57-67 (1992) and Alexander, W. S. et al. in EMBO J. 10, 3683-3691 (1991)). Recombinant retroviruses as described in von Ruden, T. et al., EMBO J. 7, 2749-2756 (1988) were used for expression of the human EGF-R cDNA (see Ullrich, A. et al. in Nature 309, 418-425 (1984)) with the difference that the retroviral vector LXSN (see Miller, A. D. et al. in BioTechniques 7, 980-990 (1989)) was employed for expression of the EGF-R cDNA, and the line GP+E86 (see Markowitz, D. et al. in J. Virol. 62, 1120-1124 (1988)) was used as packaging cell.
(§3) The test was carried out as follows:
(§4) F/L-HERc cells were cultivated in RPMI/1640 medium (BioWhittaker), supplemented with 10% fetal calf serum (FCS, Boehringer Mannheim), 2 mM glutamine (BioWhittaker), standard antibiotics and 20 ng/ml human EGF (Promega), at 37° C. and 5% CO2. To investigate the inhibitory activity of the compounds according to the invention, 1.5×10^4 cells were cultivated in the above medium (200 μl) per well in triplicates in 96-well plates, stimulating proliferation of the cells either with EGF (20 ng/ml) or with murine IL-3. The source used for IL-3 was culture supernatants from the cell line X63/0 mIL-3 (see Karasuyama, H. et al. in Eur. J. Immunol. 18, 97-104 (1988)). The compounds according to the invention were dissolved in 100% dimethyl sulphoxide (DMSO) and added in various dilutions to the cultures, with the maximum DMSO concentration being 1%. The cultures were incubated at 37° C. for 48 hours.
(§5) To determine the inhibitory activity of the compounds according to the invention, the relative cell count was measured in O.D. units using the Cell Titre 96™ AQueous Non-Radioactive Cell Proliferation Assay (Promega). The relative cell count was calculated as a per cent of the control (F/L-HERc cells without inhibitor), and the concentration of active substance which inhibits the proliferation of the cells by 50% (IC50) was inferred.

[2] = tested on: F/L-HERc cells; test: Inhibition of IL-3-dependent proliferation of F/L-HERc cells; conditions: Mus musculus, murine IL-3, 48 hours
Text: as §1, §2, §3, §4, §5

[3] = tested on: human tumour cell line KB; test: Inhibition of EGF/TGF-alpha-stimulated KB cell proliferation ([3H]-thymidine incorporation); conditions: KB cells, TGF-alpha [10 ng/ml] or EGF [20 ng/ml], 60 hours, then [3H]-thymidine 16-18 h
Procedure: To do this, the cells were washed twice and 1500 cells per well were plated out in a 96-well plate in 200 μl of IMDM (BioWhittaker) without serum in the presence of 50 μM mercaptoethanol, standard antibiotics, TGF-alpha [10 ng/ml] or EGF [20 ng/ml] and of various concentrations of the substances according to the invention (triplicates, maximum DMSO concentration 1%, see proliferation test with F/L-HERc cells). After 60 hours, [^3 H]-thymidine (0.1 μCi in 10 μl) was added for about 16-18 h.

## c1cc(Nc2ncnc3cnc(N4CCOCC4)nc23)c2cccnc2c1 [1(1), 4-(5-quinolylamino)-6-morpholinopyrimido[5,4-d]pyrimidine]
[1]
  IC50: 2000 nM
[2]
  IC50: 10000 nM

## c1cnc2ccc(Nc3ncnc4cnc(N5CCOCC5)nc34)cc2c1 [1(2), 4-(6-quinolylamino)-6-morpholinopyrimido[5,4-d]pyrimidine]
[1]
  IC50: 1000 nM

## c1cnc2c(Nc3ncnc4cnc(N5CCOCC5)nc34)cccc2c1 [1(3), 4-(8-quinolylamino)-6-morpholinopyrimido[5,4-d]pyrimidine]
[1]
  IC50: 800 nM

## c1nc(Nc2ccc3[nH]ncc3c2)c2nc(N3CCOCC3)ncc2n1 [1(4), 4-(5-indazolylamino)-6-morpholinopyrimido[5,4-d]pyrimidine]
[1]
  IC50: 125 nM

## c1cc(Nc2ncnc3cnc(N4CCOCC4)nc23)c2nsnc2c1 [1(5), 4-[4-(2,1,3-benzothiadiazolyl)amino]-6-morpholinopyrimido[5,4-d]pyrimidine]
[1]
  IC50: 1000 nM

## c1cncc(Nc2ncnc3cnc(N4CCOCC4)nc23)c1 [1(9), 4-(3-pyridylamino)-6-morpholinopyrimido[5,4-d]pyrimidine]
[1]
  IC50: 6000 nM

## c1cc(Nc2ncnc3cnc(N4CCOCC4)nc23)ccn1 [1(13), 4-(4-pyridylamino)-6-morpholinopyrimido[5,4-d]pyrimidine]
[1]
  IC50: 10000 nM
[2]
  IC50: 9000 nM

## c1cc2cc(Nc3ncnc4cnc(N5CCOCC5)nc34)ccc2cn1 [1(14), 4-(6-isoquinolylamino)-6-morpholinopyrimido[5,4-d]-pyrimidine]
[1]
  IC50: 2300 nM
[2]
  IC50: 2200 nM

## Clc1cccc(CNc2ncnc3cnc(N4CCOCC4)nc23)c1 [1(15), 4-(3-chlorobenzylamino)-6-morpholinopyrimido[5,4-d]-pyrimidine]
[1]
  IC50: 1 nM
[2]
  IC50: > 10000 nM

## c1ccc2c(c1)CCC(Nc1ncnc3cnc(NC4CC4)nc13)C2 (stereo not shown) [1(16), 4-(1,2,3,4-tetrahydro-2-naphthylamino)-6-cyclopropylaminopyrimido[5,4-d]pyrimidine]
[1]
  IC50: 200 nM

## O[C@H]1CC[C@H](Nc2ncc3ncnc(Nc4ccc5[nH]ccc5c4)c3n2)CC1 [2(1), 4-(5-indolylamino)-6-[trans-(4-hydroxycyclohexyl)amino]pyrimido[5,4-d]pyrimidine]
[1]
  IC50: 1 nM
[2]
  IC50: > 10000 nM

## Cc1cccc(Nc2ncnc3cnc(-n4ccnc4)nc23)c1 [2(2), 4-[(3-methylphenyl)amino]-6-(1-imidazolyl)pyrimido-[5,4-d]pyrimidine]
[1]
  IC50: 400 nM

## CN1CCC2(CC1)CN(c1ncc3ncnc(Nc4ccc(F)c(Cl)c4)c3n1)C2 [2(3), 4-[(3-chloro-4-fluorophenyl)amino]-6-(7-methyl-2,7-diazaspiro[3.5]-2-nonyl)pyrimido[5,4-d]pyrimidine]
[1]
  IC50: 138 nM
[2]
  IC50: > 10000 nM

## O=C(CN1CCN(c2ncc3ncnc(Nc4ccc(F)c(Cl)c4)c3n2)CC1)N1CCCC1 [2(4), 4-[(3-chloro-4-fluorophenyl)amino]-6-[4-(1-pyrrolidinylcarbonylmethyl)-1-piperazinyl]pyrimido[5,4-d]pyrimidine]
[1]
  IC50: 200 nM
[2]
  IC50: > 10000 nM

## O=C(CN1CCN(c2ncc3ncnc(Nc4ccc(F)c(Cl)c4)c3n2)CC1)N1CCOCC1 [2(5), 4-[(3-chloro-4-fluorophenyl)amino]-6-[4-(morpholinocarbonylmethyl)-1-piperazinyl]pyrimido[5,4-d]pyrimidine]
[1]
  IC50: 40 nM
[2]
  IC50: > 10000 nM

## Fc1ccc(Nc2ncnc3cnc(NCc4ccccn4)nc23)cc1Cl [2(7), 4-[(3-chloro-4-fluorophenyl)amino]-6-(2-picolylamino)pyrimido[5,4-d]pyrimidine]
[1]
  IC50: 175 nM
[2]
  IC50: > 1000 nM

## O=C(N1CCC(Nc2ncc3ncnc(Nc4ccc(F)c(Cl)c4)c3n2)CC1)C(F)(F)F [2(8), 4-[(3-chloro-4-fluorophenyl)amino]-6-[1-trifluoroacetyl-4-piperidinylamino]pyrimido[5,4-d]pyrimidine]
[1]
  IC50: 15 nM
[2]
  IC50: > 20000 nM

## Fc1ccc(Nc2ncnc3cnc(N4CCC(c5ccncc5)CC4)nc23)cc1Cl [2(9), 4-[(3-chloro-4-fluorophenyl)amino]-6-[4-(4-pyridyl)-1-piperidinyl]pyrimido[5,4-d]pyrimidine]
[1]
  IC50: 225 nM
[2]
  IC50: > 20000 nM

## Fc1ccc(Nc2ncnc3cnc(N4CCN(c5ccccn5)CC4)nc23)cc1Cl [2(10), 4-[(3-chloro-4-fluorophenyl)amino]-6-[4-(2-pyridyl)-1-piperazinyl]pyrimido[5,4-d]pyrimidine]
[1]
  IC50: 275 nM
[2]
  IC50: > 20000 nM

## NCc1cccc(CNc2ncc3ncnc(Nc4ccc(F)c(Cl)c4)c3n2)c1 [2(11), 4-[(3-chloro-4-fluorophenyl)amino]-6-[3-(aminomethyl)benzylamino]pyrimido[5,4-d]pyrimidine]
[1]
  IC50: 190 nM

## NCc1ccc(CNc2ncc3ncnc(Nc4ccc(F)c(Cl)c4)c3n2)cc1 [2(12), 4-[(3-chloro-4-fluorophenyl)amino]-6-[4-(aminomethyl)benzylamino]pyrimido[5,4-d]pyrimidine]
[1]
  IC50: 98 nM

## O[C@H]1CC[C@H](Nc2ncc3ncnc(Nc4ccc5c(c4)Cc4ccccc4-5)c3n2)CC1 [2(15), 4-[2-fluorenylamino]-6-(trans-4-hydroxycyclohexylamino)pyrimido[5,4-d]pyrimidine]
[1]
  IC50: > 10000 nM

## CN1[C@@H]2CC[C@H]1C[C@@H](Nc1ncc3ncnc(Nc4ccc(F)c(Cl)c4)c3n1)C2 [2(18), 4-[(3-chloro-4-fluorophenyl)amino]-6-(endo-tropinylamino)pyrimido[5,4-d]pyrimidine]
[1]
  IC50: 138 nM
[2]
  IC50: > 10000 nM

## CN1[C@@H]2CC[C@H]1C[C@H](Nc1ncc3ncnc(Nc4ccc(F)c(Cl)c4)c3n1)C2 [2(19), 4-[(3-chloro-4-fluorophenyl)amino]-6-(exo-tropinylamino)pyrimido[5,4-d]pyrimidine]
[1]
  IC50: 28 nM
[2]
  IC50: > 10000 nM

## c1nc(Nc2ccc3[nH]ccc3c2)c2nc(N3CCOCC3)ncc2n1 [Example 1, 4-(5-Indolylamino)-6-morpholinopyrimido[5,4-d]pyrimidine]
[1]
  IC50: 21 nM
[2]
  IC50: 10000 nM

## Fc1ccc(Nc2ncnc3cnc(NN4CCOCC4)nc23)cc1Cl [Example 2(6), 4-[(3-chloro-4-fluorophenyl)amino]-6-[(4-morpholinyl)amino]pyrimido[5,4-d]pyrimidine]
[1]
  IC50: 3 nM
[2]
  IC50: > 10000 nM
[3]
  IC50: 100 nM

## Fc1ccc(Nc2ncnc3cnc(NCc4ccncc4)nc23)cc1Cl [Example 2, 4-[(3-Chloro-4-fluorophenyl)amino]-6-(4-picolylamino)pyrimido[5,4-d]pyrimidine]
[1]
  IC50: 50 nM
[2]
  IC50: > 1000 nM
[3]
  IC50: 400 nM
